According to publication PMC10458858, “Phytochemical Investigation of Lepionurus sylvestris Blume and Their Anti-Diabetes Effects via Anti-Alpha Glucosidase and Insulin Secretagogue Activities Plus Molecular Docking” (Pharmaceuticals, 2023):
Values joined by “and” are separate entries in the source; they are usually repeats but may differ in a detail not shown here. Identical values can stand only once. Like-named read-outs stand apart in the source and are kept apart here.

Experiments:
alpha glucosidase enzyme = alpha glucosidase enzyme (Saccharomyces cerevisiae, UniProt P53341); assay: Anti-alpha glucosidase activity and mechanism of action (Michaelis–Menten, Lineweaver–Burk plots); assay type: biochemical; settings: for inhibition at 400 µg/mL: read-out: Alpha Glucosidase Inhibition at 400 μg/mL
Description: The anti-alpha glucosidase activity was determined by following Phoopha et al.’s method. […] The reaction was prepared using a phosphate buffer (pH 7.0), sample (was dissolved in DMSO), […] as substrate, and alpha glucosidase enzyme solution. The test was evaluated by measuring the velocity of the reaction per minute.

in vitro [1] = assay type: cell-based, human; settings: human; 25 µg/mL, 72 h, SRB; read-out: Cytotoxic Effect at 25 µg/mL (% Inhibition) ± SD, A549
Description: (§1) The toxicity in human cancer cells was tested on a human breast carcinoma cell line (MCF-7), human cervix adenocarcinoma cell line (HeLa), and human lung carcinoma cell line (A549), which were compared to a human gingival fibroblast cell line (HGF) as the normal cells. These cells were cultured in DMEM liquid medium, supporting supplementary nutrients for cell culture. […] A sulforhodamine B assay was used to evaluate the cytotoxic effects of the samples, following a previous report [19]. In brief, the cancer cells were seeded into 96-well plates at 5 × 10^3 cells and incubated for 24 h. Later, we added the test samples at the final concentration of 25 μg/mL and left the experiment in the incubator for 72 h. After that, the cancer cells were fixed with cold 10% trichloro acetic acid for an hour and then we washed the acid with water. The dried plate was dyed with 0.4% SRB in 1% acetic acid for 30 min, and we washed the color with 1% acetic acid 4 times. The SRB color was dissolved in the cancer cells by adding 10 mM tris-base and measuring with a microplate reader at 492 nm.

in vitro [2] = assay type: cell-based, human; settings: human; 25 µg/mL, 72 h, SRB; read-out: Cytotoxic Effect at 25 µg/mL (% Inhibition) ± SD, HeLa
Description: as §1

in vitro [3] = settings: human
Description: as §1

in vitro [4] = assay type: cell-based, human; settings: human; 25 µg/mL, 72 h, SRB; read-out: Cytotoxic Effect at 25 µg/mL (% Inhibition) ± SD, MCF-7
Description: as §1

[5] = system: insulin-secreting rat insulinoma (INS-1E) cells; assay: Insulin secretagogue activity (ELISA); assay type: cell-based; settings: 100 μg/mL, 24 h
Description: The experiment was slightly modified from previous reports. In brief, the insulin secretion was determined by testing insulin-secreting rat insulinoma (INS-1E) cells, supported by Prof. Dr. Michael Wink, Institute of Pharmacy and Molecular Biotechnology (IPMB), University of Heidelberg, Germany. The cells were cultured in RPMI-1640 liquid medium and supplementary nutrients for cell culture under the condition of a 37 °C humidified incubator containing 5% CO2. The cells were seeded into 24-well plates at 2 × 10^5 cells. Later, the cells were treated with glucose-free culture media to stop energy consumption in the cell metabolism. Afterward, the minimum concentration of glucose in RPMI-1640 was added to the samples for 24 h. Finally, the insulin secretion was measured for insulin releasing by ELISA technique.

[6] = system: HGF (human gingival fibroblast)
Description: as §1

[7] = system: A549 (human lung adenocarcinoma); assay: in vitro; assay type: cell-based
Description: as §1

[8] = system: Hela (human cervix adenocarcinoma); assay: in vitro; assay type: cell-based
Description: as §1

[9] = system: MCF-7 (human breast adenocarcinoma); assay: in vitro; assay type: cell-based
Description: as §1

[10] = 400 μg/mL, isolated compounds panel
[11] = control 2.5 mM glucose in RPMI-1640

alpha glucosidase enzyme, sequence (P53341 whole entry): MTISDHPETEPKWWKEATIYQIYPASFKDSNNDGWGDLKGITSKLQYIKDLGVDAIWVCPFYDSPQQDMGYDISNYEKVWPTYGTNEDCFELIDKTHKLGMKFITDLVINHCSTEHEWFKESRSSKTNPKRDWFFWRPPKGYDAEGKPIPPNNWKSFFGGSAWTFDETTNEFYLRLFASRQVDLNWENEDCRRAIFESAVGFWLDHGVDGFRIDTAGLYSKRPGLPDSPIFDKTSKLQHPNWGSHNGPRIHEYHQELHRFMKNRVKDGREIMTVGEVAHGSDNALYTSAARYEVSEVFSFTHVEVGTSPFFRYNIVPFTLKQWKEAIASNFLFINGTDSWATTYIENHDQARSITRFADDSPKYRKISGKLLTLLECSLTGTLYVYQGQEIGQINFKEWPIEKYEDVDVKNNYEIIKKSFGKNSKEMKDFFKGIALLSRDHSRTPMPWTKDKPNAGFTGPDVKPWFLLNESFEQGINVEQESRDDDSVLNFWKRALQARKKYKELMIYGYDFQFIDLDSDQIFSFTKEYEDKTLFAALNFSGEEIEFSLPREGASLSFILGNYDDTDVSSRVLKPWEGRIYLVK

C[C@H]1O[C@H](O[C@H]2[C@H](O)[C@@H](O)[C@@H](O[C@H]3[C@H](O)[C@@H](O)C(O)O[C@@H]3CO)O[C@@H]2CO)[C@H](O)[C@@H](O)[C@@H]1N[C@H]1C=C(CO)[C@@H](O)[C@H](O)[C@H]1O (stereo partly drawn) [Acarbose, reference compound]
Alpha Glucosidase Inhibition at 400 μg/mL (alpha glucosidase enzyme; [10]): 62.14 ± 0.37 | Alpha Glucosidase Inhibition at 2 mg/mL (alpha glucosidase enzyme; 2 mg/mL, extracts panel): 88.18 ± 0.53% | mechanism of enzyme inhibition (alpha glucosidase enzyme; Michaelis–Menten and Lineweaver–Burk kinetic plots): competitive

CC[C@@]1(O)C(=O)OCc2c1cc1n(c2=O)Cc2cc3ccccc3nc2-1 [Camptothecin, reference compound]
inhibition at 72 h, 25 µg/mL (in vitro [1]): 87.7 ± 1.78% | inhibition at 72 h, 25 µg/mL (in vitro [2]): 85.2 ± 1.23% | inhibition at 72 h, 25 µg/mL (in vitro [3]): 7.35 ± 1.34% | inhibition at 72 h, 25 µg/mL (in vitro [4]): 92.95 ± 0.33%

OCC(O)COCC(O)CO (stereo not drawn) [Diglycerol]
total insulin secretion (insulin concentration) [5, 11]: 102.2139 µg/L | total insulin secretion (insulin concentration) ([5]; control 2.5 mM glucose in RPMI-1640, listed as diglycerol): 102.21 µg/L | inhibition at 400 µg/mL (alpha glucosidase enzyme; [10]): 6.23 ± 1.84%

CC(C)[C@@H](C)/C=C/[C@@H](C)[C@H]1CC[C@H]2C3=CC=C4C[C@@H](O)CC[C@]4(C)[C@H]3CC[C@]12C [Ergosterol]
total insulin secretion (insulin concentration) [5, 11]: 102.4525 µg/L | total insulin secretion (insulin concentration) ([5]; control 2.5 mM glucose in RPMI-1640, listed as ergosterol): 102.45 µg/L | inhibition at 400 µg/mL (alpha glucosidase enzyme): 18.6 ± 1.42%

COc1ccc(Cl)cc1C(=O)NCCc1ccc(S(=O)(=O)NC(=O)NC2CCCCC2)cc1 [Glibenclamide, reference compound]
total insulin secretion (insulin concentration) [5, 11]: 104.57 µg/L and 104.5722 µg/L

Cc1c(O)c(C(=O)CCc2ccccc2)c2oc(=O)cc(-c3ccccc3)c2c1O [Interruptin A]
total insulin secretion (insulin concentration) [5, 11]: 102.52 µg/L and 102.5228 µg/L | inhibition at 400 µg/mL (alpha glucosidase enzyme; [10]): 30.3 ± 1.17%

Cc1c(O)c(C(=O)C(O)Cc2ccccc2)c2oc(=O)cc(-c3ccccc3)c2c1O (stereo not drawn) [Interruptin C]
total insulin secretion (insulin concentration) [5, 11]: 102.0534 µg/L | total insulin secretion (insulin concentration) ([5]; control 2.5 mM glucose in RPMI-1640, listed as interruptin C): 102.05 µg/L | inhibition at 400 µg/mL (alpha glucosidase enzyme; [10]): 58.2 ± 0.83%

C=C1CC23COC(=O)C2=CCC[C@@H]3[C@@H]2C[C@H](c3ccoc3)OC(=O)[C@H]12 (stereo partly drawn) [The new diterpene (Lepionurodiolide), 15-16-epoxy-neo-cleoda-3,7(20),13(16),14-tetraene-12,17:18,19-diolide]
total insulin secretion (insulin concentration) ([5]; control 2.5 mM glucose in RPMI-1640, listed as The new diterpene): 52.0566 µg/L | total insulin secretion (insulin concentration) ([5]; control 2.5 mM glucose in RPMI-1640, listed as the new diterpene compound): 52.06 µg/L | inhibition at 400 µg/mL (alpha glucosidase enzyme; [10]): 58.48 ± 0.48%

Hexane
Cytotoxic Effect at 25 µg/mL (% Inhibition) ± SD, HGF [6]: 48.23 ± 2.96% | cytotoxicity category on HGF cells [6]: moderate (key: non-cytotoxic: cell viability above 80%; weak: 80–60%; moderate: 60–40%; strong: below 40%) | Cytotoxic Effect at 25 µg/mL (% Inhibition) ± SD, A549 [7]: 15.40 ± 2.75% | Cytotoxic Effect at 25 µg/mL (% Inhibition) ± SD, HeLa [8]: 83.89 ± 4.31% | Cytotoxic Effect at 25 µg/mL (% Inhibition) ± SD, MCF-7 [9]: 53.54 ± 1.81%
